In patent US7799530B2, “Genetic polymorphisms associated with cardiovascular disorders and drug response, methods of detection and uses thereof” (Celera Corporation, priority 2005, dated 2010):

Tests used:
[1] = system: MI / coronary events in Scottish men with hypercholesterolemia; assay: WOSCOPS nested case-control study: MI/CHD in pravastatin- vs placebo-treated patients stratified by SNP genotype; format: in vivo, human; settings: for OR, CHD case vs control, Matched: placebo = ref 1.00, cases and controls matched for age and smoking; for OR, CHD case vs control, Adjusted: placebo = ref 1.00, matched and adjusted for hypertension, diabetes, BMI, LDL-C, HDL-C; for Risk Reduction by Statin (Pravastatin vs. Placebo) OR: odds ratio of MI, pravastatin- vs placebo-treated, heterozygous carriers of hCV3054799 only
Source text: In order to identify genetic markers associated with acute coronary events (e.g. MI, stroke, unstable angina, congestive heart failure, etc.) or response to statin treatment for the prevention of coronary events, samples were genotyped in two clinical trials: the Cholesterol and Recurrent Events (CARE) study (a randomized multicentral double-blinded trial on secondary prevention of acute coronary events with pravastatin; Sacks et al., Am. J. Cardiol. 68: 1436-1446[1991]), and the West of Scotland Coronary Prevention Study (WOSCOPS) study (Shepherd et al., N Eng J Med 333 (20), pp. 1301-7, Nov. 16, 1995; Packard et al., N Eng J Med 343 (16), pp. 1148-55, Oct. 19, 2000).
Genetic markers identified as associated with acute coronary events or response to statin treatment for the prevention of coronary events in the CARE samples were also genotyped in a second sample set, the West of Scotland Coronary Prevention Study (WOSCOPS). The design of the original WOSCOPS cohort and the nested case-control study have been described (Shepherd et al., N Eng J Med 333 (20), pp. 1301-7, Nov. 16, 1995; Packard et al., N Eng J Med 343 (16), pp. 1148-55, Oct. 19, 2000). The objective of the WOSCOPS trial was to assess pravastatin efficacy at reducing risk of primary MI or coronary death among Scottish men with hypercholesterolemia (fasting LDL cholesterol>155 mg/dl). Participants in the WOSCOPS study were 45-64 years of age and followed for an average of 4.9 years for coronary events. The nested case-control study included as cases all WOSCOPS patients who experienced a coronary event (confirmed nonfatal MI, death from coronary heart disease, or a revascularization procedure; N=580). Controls were age- and smoking-matched unaffected patients. All individuals included in the study had signed informed consent forms and the study protocol was approved by the IRBs. DNA was extracted and genotyped as described above.
The association of hCV3054799 with risk of MI in patients was tested in two clinical trials, CARE and WOSCOPS, with patients receiving treatment with either pravastatin or placebo. CARE was a secondary prevention trial (i.e., recurrent MI as endpoint) and WOSCOPS was a primary prevention trial. […] The analysis in WOSCOPS (a nested case-control study) was performed using the MI as an endpoint.
In both the CARE and WOSCOPS studies, an association analysis was performed for each of the two modes of inheritance, dominant and recessive. Additionally, a genotypic test (heterozygote v. major homozygote) and an allelic test of association were performed using Fisher's exact method. Estimates of odds ratios and corresponding ninety-five percent confidence intervals were calculated. The significance of the disease association for hCV3054799 with the overall (unstratified) population, and with the placebo- or pravastatin-treated patients are indicated in Table 8. […] In patients that are heterozygous carriers of the minor allele, the odds ratio for risk of MI relative to patients with no minor allele is 1.7, with a P value below 0.01 both studies. The odds ratio is approximately the same (1.6-1.7) when calculated for the dominant mode of inheritance (a genotype with one or two minor alleles vs. none), with a P value less than or equal to 0.01 in both studies.
Also analyzed was whether hCV3054799 is associated with response to statin treatment (specifically, a decreased risk of MI as a result of treatment with pravastatin). […] Heterozygous carriers in the placebo treatment group were used as a reference in determining the odds ratios. […] For comparison, the odds ratio for association of this SNP with MI risk in placebo-treated carriers is also presented, under the heading “MI/RMI risk estimation” (data from Table 8; again, heterozygous carriers).
In analyzing the CARE patients, statistical analysis was performed with SAS version 9. […]

[2] = system: animal models and myocyte cultures; settings: compared to other hydrophobic statins; cited from earlier work

## CC[C@H](C)C(=O)O[C@H]1C[C@H](O)C=C2C=C[C@H](C)[C@H](CC[C@@H](O)C[C@@H](O)CC(=O)O)[C@H]21 [pravastatin]
[1]; KIF6 hCV3054799 AA
  OR, CHD case vs control, Matched: 0.94
  OR, CHD case vs control, Adjusted: 0.91
[1]; KIF6 hCV3054799 GG + GA
  OR, CHD case vs control, Matched: 0.50
  OR, CHD case vs control, Adjusted: 0.50
[1]
  Risk Reduction by Statin (Pravastatin vs. Placebo) OR: approximately 0.5
[1]; listed as Pravastatin
  Risk Reduction by Statin (Pravastatin vs. Placebo) OR: 0.45
[2]
  myopathic potential: low myopathic potential
